We go through one compound from PMC6548501, “Sterol transfer by atypical cholesterol-binding NPC2 proteins in coral-algal symbiosis” (eLife, 2019).

Molecules are shown by their SMILES.

This test has as its target T1, Aiptasia non-canonical NPC2 XM_021052404 (Exaiptasia diaphana, UniProt A0A913XQG8).
T1 construct: expressed in HEK 293T, NPC2 - five-proline linker - crmCherry - 3xHA (C-terminal), lysate, anti-HA pull-down; native protein also precipitated from Aiptasia CC7
T1 sequence (A0A913XQG8 60-190): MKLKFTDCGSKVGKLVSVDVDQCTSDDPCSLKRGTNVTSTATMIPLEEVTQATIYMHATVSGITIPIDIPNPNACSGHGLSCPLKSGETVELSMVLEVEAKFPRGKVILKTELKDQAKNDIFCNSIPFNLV
Kind of test: immunoprecipitation-lipidomics (mass spectrometry of co-eluted sterols). The settings on record: HEK 293T lysate mixed with Symbiodiniaceae SSB01 homogenate (sterol mixture), pH 7 or pH 5. The class given is binding.

Consider `CC(C)CCC[C@@H](C)[C@H]1CC[C@H]2[C@@H]3CC=C4C[C@@H](O)CC[C@]4(C)[C@H]3CC[C@]12C` [cholesterol], for which the “immunoprecipitation-lipidomics (mass spectrometry of co-eluted sterols)” value was “directly bound to cholesterol and various sterols the way other NPC2 proteins normally do”.
